# Reference: PMC7747594, “Protease-activated receptor-2 ligands reveal orthosteric and allosteric mechanisms of receptor inhibition” (Communications Biology, 2020)
# Values joined by “and” are separate entries in the source; they are usually repeats but may differ in a detail not shown here. Equal entries are not always repeated.
# Tests used:
# [1] = molecular target: T1, PAR4 (F2RL3) (Homo sapiens, UniProt Q96RI0); assay: β-arrestin recruitment, DiscoverX profiling service, PAR4; type: cell-based
# T1 sequence (Q96RI0 18-385): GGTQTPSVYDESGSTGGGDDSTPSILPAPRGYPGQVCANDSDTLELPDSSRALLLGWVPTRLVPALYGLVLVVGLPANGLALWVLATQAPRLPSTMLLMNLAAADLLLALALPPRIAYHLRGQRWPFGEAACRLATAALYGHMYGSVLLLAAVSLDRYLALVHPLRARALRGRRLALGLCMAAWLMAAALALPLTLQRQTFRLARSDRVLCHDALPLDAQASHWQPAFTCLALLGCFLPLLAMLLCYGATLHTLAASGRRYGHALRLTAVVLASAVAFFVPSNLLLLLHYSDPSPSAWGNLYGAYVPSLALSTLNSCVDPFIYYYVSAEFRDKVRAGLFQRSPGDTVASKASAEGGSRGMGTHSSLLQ
# [2] = molecular target: T2, hPAR2 (Homo sapiens, UniProt P55085); assay: β-arrestin-2 recruitment, agonist mode, U2OS-hPAR2 cells; type: cell-based; set-up: agonist response (Fig 2f), individual replicate values: unit not given here
# T2 sequence (P55085 26-397): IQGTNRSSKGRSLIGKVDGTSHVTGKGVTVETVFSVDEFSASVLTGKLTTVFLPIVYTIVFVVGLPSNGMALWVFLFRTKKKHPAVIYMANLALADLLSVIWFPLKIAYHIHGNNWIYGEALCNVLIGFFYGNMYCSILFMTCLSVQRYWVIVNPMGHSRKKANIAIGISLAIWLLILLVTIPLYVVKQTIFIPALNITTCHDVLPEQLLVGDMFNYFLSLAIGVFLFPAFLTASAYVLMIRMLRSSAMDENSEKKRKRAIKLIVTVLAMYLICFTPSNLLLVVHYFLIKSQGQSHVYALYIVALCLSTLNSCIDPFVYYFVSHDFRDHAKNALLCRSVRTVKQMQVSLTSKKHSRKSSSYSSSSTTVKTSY
# [3] = molecular target: T2, hPAR2; assay: pERK1/2 assay, agonist mode, U2OS-hPAR2 cells; type: cell-based; set-up: agonist response (Fig 2e), individual replicate values: unit not given here
# [4] = molecular target: T3, PAR1 (F2R) (Homo sapiens, UniProt P25116); assay: β-arrestin recruitment, DiscoverX profiling service, PAR1; type: cell-based
# T3 sequence (P25116 22-425): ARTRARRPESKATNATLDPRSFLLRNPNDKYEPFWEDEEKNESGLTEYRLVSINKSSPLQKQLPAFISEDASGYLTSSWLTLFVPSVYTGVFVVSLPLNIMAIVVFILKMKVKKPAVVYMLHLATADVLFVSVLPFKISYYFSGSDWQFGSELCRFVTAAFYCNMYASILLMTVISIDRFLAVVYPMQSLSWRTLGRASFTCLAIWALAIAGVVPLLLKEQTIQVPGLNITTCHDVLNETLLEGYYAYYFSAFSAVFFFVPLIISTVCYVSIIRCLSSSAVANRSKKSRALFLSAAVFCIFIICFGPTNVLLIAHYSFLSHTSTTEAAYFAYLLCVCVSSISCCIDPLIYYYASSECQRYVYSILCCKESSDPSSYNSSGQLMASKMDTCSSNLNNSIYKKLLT
# [5] = molecular target: T4, PAR2 (F2RL1) (Homo sapiens, UniProt P55085); assay: β-arrestin recruitment, DiscoverX profiling service, PAR2; type: cell-based; conditions: for Max Response: in % (unit assumed)
# T4 sequence (P55085 26-397): T2 sequence (P55085 26-397)
# [6] = molecular target: T2, hPAR2; assay: IP1 assay, agonist mode, 1321N1-hPAR2 cells; type: cell-based
# [7] = molecular target: T5, PAR2 stabilised receptor (StaR) (Homo sapiens, UniProt P55085); assay: Surface plasmon resonance (SPR) binding, single-cycle kinetics; conditions: n of 2, earlier manuscript version quoted by reviewer
# T5 sequence (P55085 55-377): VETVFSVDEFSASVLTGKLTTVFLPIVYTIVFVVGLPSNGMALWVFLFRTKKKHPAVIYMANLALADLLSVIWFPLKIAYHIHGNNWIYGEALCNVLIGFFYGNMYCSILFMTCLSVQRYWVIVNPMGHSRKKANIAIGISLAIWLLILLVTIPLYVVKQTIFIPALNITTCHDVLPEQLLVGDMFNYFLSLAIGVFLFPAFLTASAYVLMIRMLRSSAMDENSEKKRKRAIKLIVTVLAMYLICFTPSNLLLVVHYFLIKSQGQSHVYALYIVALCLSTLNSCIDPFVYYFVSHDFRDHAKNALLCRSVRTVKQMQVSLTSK
smiles,measurement,setting,value
CNC(=O)[C@H]1CC[C@@H](NC(=O)[C@H](CC2CCCCC2)NC(=O)c2cn(Cc3ccccc3)nn2)c2ccccc21 [AZ2429],Max Response,"[1]; Arrestin, Agonist format, F2RL3",3.8%
same,EC50,"[1]; Arrestin, Agonist format, F2RL3, read-out: RC50 (EC50)",> 50000 nM
same,Max Response,"[1]; Arrestin, Antagonist format, F2RL3",2.3%
same,IC50,"[1]; Arrestin, Antagonist format, F2RL3, read-out: RC50 (IC50)",> 50000 nM
same,activity against PAR4 in β-arrestin-2 recruitment assay,[1]; DiscoverX profiling service,No AZ2429 activity was detected
same,EC50,"[2]; U2OS-hPAR2, mean ± s.e.m., read-out: β-arrestin pEC50 (converted)",251 nM
same,"agonist response (Fig 2f), individual replicate values","[2]; [compound],M -4.52288",136.003 and 128.564 and 133.913 and 56.5764 and 110.418 and 80.4631 and 65.432 and 80.8727 and 70.3477 and 91.7141 and 102.077 and 89.1574
same,"agonist response (Fig 2f), individual replicate values","[2]; [compound],M -5",131.19 and 120.248 and 136.172 and 56.4288 and 102.534 and 68.8992 and 68.7979 and 70.6147 and 68.8215 and 77.979 and 96.7821 and 92.1516
same,"agonist response (Fig 2f), individual replicate values","[2]; [compound],M -5.47712",112.303 and 119.541 and 118.68 and 44.4899 and 108.952 and 63.9568 and 68.1752 and 70.9487 and 60.988 and 94.267 and 96.9331 and 92.4234
same,"agonist response (Fig 2f), individual replicate values","[2]; [compound],M -5.95424",118.57 and 119.322 and 126.112 and 66.9594 and 124.296 and 94.3698 and 67.5375 and 74.2944 and 72.0498 and 104.83 and 109.824 and 109.97
same,"agonist response (Fig 2f), individual replicate values","[2]; [compound],M -6.43136",125.477 and 105.411 and 104.73 and 109.603 and 104.761 and 111.037 and 54.7204 and 64.3421 and 52.5276 and 82.0218 and 82.1308 and 78.7213
same,"agonist response (Fig 2f), individual replicate values","[2]; [compound],M -6.90849",100.424 and 92.4091 and 99.838 and 93.2711 and 86.5209 and 104.138 and 29.1218 and 35.2385 and 27.4797 and 47.1154 and 56.0608 and 47.0166
same,"agonist response (Fig 2f), individual replicate values","[2]; [compound],M -7.38561",86.365 and 78.1735 and 66.0975 and 85.2162 and 75.5111 and 91.061 and 20.8827 and 22.73 and 14.0732 and 38.9752 and 29.9961 and 25.8403
same,"agonist response (Fig 2f), individual replicate values","[2]; [compound],M -7.86273",50.0191 and 38.4004 and 28.0445 and 63.4341 and 52.1546 and 58.7101 and 8.067 and 10.1642 and 0.7234 and 8.708 and 10.6741 and 5.686
same,"agonist response (Fig 2f), individual replicate values","[2]; [compound],M -8.33985",11.2254 and 10.5953 and 6.644 and 26.1895
same,EC50,"[3]; U2OS-hPAR2, mean ± s.e.m., read-out: pERK1/2 pEC50 (converted)",39.8 nM
same,"agonist response (Fig 2e), individual replicate values","[3]; [compound],M -4.52288",92.0141 and 74.7053 and 111.675 and 66.5866 and 60.3473 and 74.0471 and 117.965 and 130.52 and 124.805 and 98.7887 and 171.327 and 138.91
same,"agonist response (Fig 2e), individual replicate values","[3]; [compound],M -5",145.403 and 95.3612 and 122.434 and 53.1755 and 72.071 and 69.3732 and 123.833 and 115.408 and 143.854 and 198.596 and 120.076 and 126.959
same,"agonist response (Fig 2e), individual replicate values","[3]; [compound],M -5.47712",102.451 and 94.8209 and 99.914 and 62.5677 and 62.1847 and 84.7772 and 121.954 and 124.064 and 131.389 and 108.103 and 101.197 and 120.75
same,"agonist response (Fig 2e), individual replicate values","[3]; [compound],M -5.95424",89.9122 and 82.9611 and 84.3447 and 63.5614 and 54.0303 and 47.0028 and 93.3928 and 116.239 and 97.5862 and 98.4234 and 105.569 and 117.075
same,"agonist response (Fig 2e), individual replicate values","[3]; [compound],M -6.43136",89.3258 and 69.9482 and 44.5682 and 54.9685 and 62.0293 and 44.3162 and 80.2501 and 88.0999 and 54.8467 and 72.3986 and 88.607 and 61.7832
same,"agonist response (Fig 2e), individual replicate values","[3]; [compound],M -6.90849",70.3304 and 41.0432 and 36.2531 and 47.5801 and 30.25 and 29.0399 and 34.5189 and 34.3783 and 18.7041 and 36.9798 and 32.4711 and 22.2209
same,"agonist response (Fig 2e), individual replicate values","[3]; [compound],M -7.38561",20.4269 and 21.9818 and 16.3418 and 12.8089 and 11.7486 and 24.5769 and 9.704 and 15.3673 and 6.674 and 12.0051 and 3.09 and 15.3723
same,"agonist response (Fig 2e), individual replicate values","[3]; [compound],M -7.86273",4.95 and -1.995 and 15.7225 and 4.505 and 8.124 and 3.783 and 3.311 and 7.198 and -0.6009 and -4.9 and 2.6 and 2.634
same,"agonist response (Fig 2e), individual replicate values","[3]; [compound],M -8.33985",2.5581 and 8.989 and 6.59 and 1.141
same,Max Response,"[4]; Arrestin, Agonist format, F2R",0%
same,EC50,"[4]; Arrestin, Agonist format, F2R, read-out: RC50 (EC50)",> 50000 nM
same,Max Response,"[4]; Arrestin, Antagonist format, F2R",0%
same,IC50,"[4]; Arrestin, Antagonist format, F2R, read-out: RC50 (IC50)",> 50000 nM
same,activity against PAR1 in β-arrestin-2 recruitment assay,[4]; DiscoverX profiling service,No AZ2429 activity was detected
same,Curve Bottom,[5]; Agonist format,-2
same,Curve Top,[5]; Agonist format,103.3
same,Hill,[5]; Agonist format,1.29
same,Max Response,[5]; Agonist format,104.3
same,EC50,"[5]; Agonist format, read-out: RC50 (EC50)",25 nM
same,Max Response,[5]; Antagonist format,4.5
same,IC50,"[5]; Antagonist format, read-out: RC50 (IC50)",> 50000 nM
same,"more potent than SLIGKV-NH2, IP1 accumulation",[6]; 1321N1-hPAR2,120 fold
same,EC50,"[6]; 1321N1-hPAR2 cells, mean ± s.e.m., read-out: IP1 pEC50 (converted)",200 nM
C[C@@H](C1CCCCC1)n1c(-c2cc3c(cc2Br)OCO3)nc2cc(C(=O)Nc3ccc(C#N)cc3)ccc21 [AZ3451],Kd,[7],14 nM
